The target of assay [1] is T1, Adrenergic receptor beta (Rattus norvegicus, UniProt P18090+P10608+P26255). As to the kind of experiment: Binding affinity against the [3H]dihydroalprenolol binding sites on beta adrenergic receptor of rat heart reticulocytes pretreated with alkylating beta-blockers.
Assay [2] concerns the target T1, Adrenergic receptor beta. As to the kind of experiment: Binding affinity against beta adrenergic receptor from rat heart tissues was determined. Format: protein assay.
Assay [3] concerns the target T1, Adrenergic receptor beta. The assay is described as follows: Binding affinity against beta adrenergic receptor from rat lung tissues was determined. Type of assay: protein assay.
The target of assay [4] is T1, Adrenergic receptor beta. The assay is described as follows: Binding affinity against the [3H]dihydroalprenolol binding to beta adrenergic receptor of rat lung reticulocytes pretreated with alkylating beta-blockers.
The target in assay [5] is T1, Adrenergic receptor beta. The assay is described as follows: Binding affinity against the [3H]dihydroalprenolol binding to beta adrenergic receptor of rat heart reticulocytes pretreated with alkylating beta-blockers.
The target of assay [6] is T2, Adrenergic receptor beta (Rattus norvegicus) (UniProt P18090+P10608+P26255). As to the kind of experiment: Concentration of binding sites of protein for [3H]dihydroalprenolol binding sites on beta adrenergic receptor of rat heart reticulocytes was determined.
The target of assay [7] is T2, Adrenergic receptor beta (Rattus norvegicus). The assay is described as follows: Percent potency for irreversible blockade of the [3H]dihydroalprenolol binding to beta adrenergic receptor of rat heart reticulocytes pretreated with alkylating beta blockers at concentration of 1 x 10e-6 M.
Assay [8] shares this target. The assay is described as follows: Percent potency for irreversible blockade of the [3H]dihydroalprenolol binding to beta adrenergic receptor of rat heart reticulocytes pretreated with alkylating beta blockers at concentration of 1 x 10e-7 M.

Take `CC1(NC(=O)CBr)CCC(C(C)(C)NCC(O)COc2cccc3[nH]ccc23)CC1` (stereo unspecified): the Kd at Adrenergic receptor beta [1] worked out at 2 nM; at Adrenergic receptor beta [4] it was 1.4 nM. Moreover, the figures for the Ki on Adrenergic receptor beta [2] and at Adrenergic receptor beta [3] were 22.6 nM and 4.46 nM, respectively.

Turning to `C=CCc1ccccc1OCC(O)CNC(C)(C)C1CCC(C)(NC(=O)CBr)CC1` (stereo unspecified), the Ki was 31.2 nM at Adrenergic receptor beta [2] and 19.8 nM on Adrenergic receptor beta [3].

For `C=CCc1ccccc1OCC(O)CNC1(C)CCC(C(C)(C)NC(=O)CBr)CC1` (stereo unspecified) [BROMOACETYL ALPRENOLOL MENTHANE], the Ki on Adrenergic receptor beta [2] came out at 391 nM; on Adrenergic receptor beta [3], 126 nM.

Regarding `CC1(NC(=O)CBr)CCC(C(C)(C)NCC(O)COc2cccc3[nH]c(C#N)cc23)CC1` (stereo unspecified), the Kd at Adrenergic receptor beta [5] was found to be 1.6 nM; at Adrenergic receptor beta [4] it was 1.2 nM. Besides, the Ki stood at 1.83 nM at Adrenergic receptor beta [2] and 2.78 nM at Adrenergic receptor beta [3].

Consider `CC1(NCC(O)COc2cccc3[nH]ccc23)CCC(C(C)(C)NC(=O)CBr)CC1` (stereo unspecified), for which the Ki is recorded as 0.46 nM on Adrenergic receptor beta [2] and 1.34 nM at Adrenergic receptor beta [3].

Compound `CC1(NCC(O)COc2cccc3[nH]c(C#N)cc23)CCC(C(C)(C)NC(=O)CBr)CC1` (stereo unspecified) gave a Bmax (fM (mg of protein)-1) in assay [6] of 11. The Kd at Adrenergic receptor beta [5] was found to be 1.6 nM; at Adrenergic receptor beta [4], 1 nM. In addition, the figures for the Blockade in assay [7] and in assay [8] were 95% and 89%, respectively. In addition, the Ki on Adrenergic receptor beta [2] was determined as 0.61 nM; at Adrenergic receptor beta [3] it was 1.49 nM.

One may read the Kd as the free concentration of one partner at which half of the binding sites on the other are occupied at equilibrium, for simple one-to-one binding. A word on the Ki: it is the dissociation constant of the complex between target and ligand, obtained from inhibition or displacement. Read a high Ki as weaker binding.

Values taken from ChEMBL document CHEMBL1123709, “Affinity labels for beta-adrenoceptors: preparation and properties of alkylating beta-blockers derived from indole” (J Med Chem, 1987).
